pKd, pKi: −log10 of the molar value.
Assays:
mice [1] = assay: Object location memory (OLM) test; assay type: in vivo, mouse; settings: wild-type mice, R,R-HNK
Experimental: Object-location memory (OLM): this test was performed in a square arena (28cm side) with opaque walls containing cues (black stripes or spots). The adult male and female mice (18-22 weeks old) were placed for 3 consecutive days (15min per session) in the arena with two identical objects (table tennis balls glued to caps of 50ml Falcon tubes) in the same position throughout the sessions (pretest).

[2] = test system: GluR1 subunit of AMPA receptors; assay: Surface GluR1 ELISA in cortical cells of TRKB.Y433F mice; assay type: cell-based, mouse
Experimental: (§1) Briefly, the MG87.TRKB cells or primary cortical cells from rat or mouse embryos, cultivated in clear bottom 96-well plates (ViewPlate 96, Perkin Elmer), were washed with ice-cold PBS and fixed with 100μl of 4% PFA per well. […] Following washing, the samples were incubated with HRP-conjugated anti-goat or anti-rabbit IgG (1:5000 in blocking buffer) for 1h at RT. The cells were washed 4x with 200μl of PBS for 10 min each. Finally, the chemiluminescent signal generated by reaction with ECL was analyzed in a plate reader.

NMDA receptors = test system: NMDA receptors; set-up: method as in Zanos et al., 2016, 2018; settings: ref Zanos et al., 2016, 2018; cited from earlier work
TRKB [3] = biological target: T1, TRKB (Mus musculus, UniProt P15209); assay: Cell-free ligand binding assay on immobilised TRKB from HEK293T lysates; set-up: wild-type GFP-tagged full length TRKB or the GFP-tagged Y433F TRKB mutant; host or cells: HEK293T; settings: biotinylated FLX 1 μM
Experimental: (§2) The cell-free assays (binding assays) were performed in white 96-well plates, based on the protocol used for western-blotting or ELISA ([Baeza-Raja et al., 2016]; [Das et al., 2015]). The plates were precoated with anti-GFP, anti-FLAG, anti-TRK or anti-TRKB antibody (1:1000) in carbonate buffer (pH 9.8), ON at 4°C. Following blocking with 3% BSA in PBS buffer (2 h at RT), 120 ug of total protein from each sample (of lysates from HEK293T cells transfected to overexpress GFP-TRKB.wt or GFP-TRKB.Y433F) were added and incubated overnight at 4°C under agitation. […] The luminescence was determined via HRP-conjugated streptavidin (1:10000, 1h, RT) activity reaction with ECL by a plate reader. The luminescence signal from blank wells (containing all the reagents but the sample lystates, substituted by the blocking buffer) was used as background. The specific signal was then calculated by subtracting the values of blank wells from the values of the samples with matched concentration of the biotinylated ligand. For Figure 2E, the precipitated TRKB.wt or Y433F was incubated with tritiated imipramine (0-30μM) and the radioactive emission of the ligand was determined by scintillation (OptiPhase Supermix cocktail: #1200-439; MicroBeta2, Perkin-Elmer). The scintillation signal from blank wells was used as background, and the specific signal was then calculated by subtracting the values of blank wells from the values of the samples with matched concentration of the radioactive ligand.

[4] = test system: GluR1 subunit of AMPA receptors; assay: Surface GluR1 ELISA in rat cortical cells; assay type: cell-based
Experimental: as §1

TRKB [5] = biological target: T1, TRKB; assay: Cell-free ligand binding assay on immobilised TRKB from HEK293T lysates; set-up: wild-type GFP-tagged full length TRKB or the GFP-tagged Y433F TRKB mutant; host or cells: HEK293T; settings: biotinylated R,R-HNK (Figure 2E)
TRKB.Y433F = biological target: T2, TRKB.Y433F (Mus musculus, UniProt P15209, Y433F); assay: Cell-free ligand binding assay, TRKB.Y433F mutant; settings: tritiated imipramine, biotinylated R,R-HNK
T2 construct: wild-type GFP-tagged full length TRKB or the GFP-tagged Y433F TRKB mutant; host or cells: HEK293T
Experimental: as §2

TRKB:PLC-γ1 interaction = TRKB:PLC-γ1 interaction ELISA in cortical cells; assay type: cell-based, rat; settings: rat cortical cells
Experimental: The TRKB:pY (phosphorylated TRKB), TRKB:PLC-γ1, PLC-γ1:pTRKB.Y816 interactions and were determined by ELISA, based on the general method described in literature ([Antila et al., 2014]; [Fred et al., 2019]), with minor adjustments. Briefly, white 96-well plates (OptiPlate 96F-HB, Perkin Elmer) were coated with capturing anti-TRKB or PLC-γ1 antibody (1:1000) in carbonate buffer (pH = 9.8) overnight (ON) at 4°C. Following a blocking step with 2%BSA in TBS-T (2 h, RT), samples were incubated ON at 4°C. The incubation with antibody against pTRKB.Y816, PLC-γ1 or pY (1:2000, ON, 4°C) was followed by HRP-conjugated anti-Rb IgG (1:5000, 2h, RT) or HRP-conjugated streptavidin (1:10000, 2h, RT). Finally, the chemiluminescent signal generated by the reaction with ECL was analyzed in a plate reader (Varioskan Flash, Thermo Scientific).

mice [6] = assay: Ocular dominance plasticity (monocular deprivation, intrinsic signal imaging); assay type: in vivo, mouse
Experimental: The “transparent skull” preparation was executed as described in literature ([Steinzeig et al., 2017]). Briefly, adult female mice (20-22 weeks old) were anesthetized via i.p. injection with a mixture containing: 0.05 mg/kg fentanyl (Hameln, Germany); 5 mg/kg midazolam (Hameln, Germany); 0.5 mg/kg medetomidine (Orion Pharma, Finland); diluted in saline (B Braun, Germany). The animals’ eyes were covered with protective-gel (Alcon, UK). The animal’s head was shaved and disinfected with ethanol and Betadine. The mouse head was then fixed on the stereotaxic frame and the temperature was maintained at 37°C. A mixture of lidocaine and adrenaline (Orion Pharma, Finland) was applied locally on the head and the skin was cut with spring scissors. The incision area was restricted 2 mm above the bregma and caudal edge of intraparietal bone. The scalp was removed and a focused air stream and a cotton swab were used to clean and stop bleeding. The periosteum was gently scratched away from the skull with an eye scalpel and the temporal muscles were pushed aside, in order to expose enough space around the area of interest to attach the metal holder. When the skull was smooth, white and dry, fat was removed from the skull rapidly by passing on it a cotton swab soaked in acetone and the air current was used to avoid its penetration into the bone. Then, with a metal stick, a thin layer of cyanoacrylate glue (Loctite 401, Henkel, Germany) was applied to the surface of the skull, in order to make the skull transparent. After waiting 10 minutes for the glue to dry, a first layer of acryl was applied on the skull surface with a brush. Acryl was used to prolong the life of the transparency and was prepared by stirring acrylic powder (EUBECOS, Germany) with methacrylate liquid (Densply, Germany) until a nail-polish consistency was reached. After 30 minutes, a second layer of acryl was applied and was left to dry overnight. Finally, the animals were injected s.c. with 5 mg/kg Carprofen (ScanVet, Nord Ireland) for postoperative analgesia and i.p. with a wake-up composed by: 1.2 mg/kg Naloxone (Orpha-Devel Handels und Vertriebs GmbH, Austria), opioid receptor antagonist; 0.5 mg/kg Flumazenil (Hameln, Germany), GABA-A receptor antagonist; 2.5 mg/kg Atipamezole (Vet Medic animal Health Oy, Finland), adrenergic receptor antagonist; diluted in saline (B Braun, Germany). The next day, isoflurane at 4% was used for a couple of minutes to induce the anesthesia and then it was reduced at 2% for the procedure. The acryl layer was polished only on the area of interest, using a hand drill with a polishing bit. […]
Optical imaging. The saturation of haemoglobin in the primary visual cortex of the right hemisphere was measured to assess cortical activity ([Cang et al., 2005]; [Kalatsky and Stryker, 2003]). […]

T1 sequence (P15209 32-821): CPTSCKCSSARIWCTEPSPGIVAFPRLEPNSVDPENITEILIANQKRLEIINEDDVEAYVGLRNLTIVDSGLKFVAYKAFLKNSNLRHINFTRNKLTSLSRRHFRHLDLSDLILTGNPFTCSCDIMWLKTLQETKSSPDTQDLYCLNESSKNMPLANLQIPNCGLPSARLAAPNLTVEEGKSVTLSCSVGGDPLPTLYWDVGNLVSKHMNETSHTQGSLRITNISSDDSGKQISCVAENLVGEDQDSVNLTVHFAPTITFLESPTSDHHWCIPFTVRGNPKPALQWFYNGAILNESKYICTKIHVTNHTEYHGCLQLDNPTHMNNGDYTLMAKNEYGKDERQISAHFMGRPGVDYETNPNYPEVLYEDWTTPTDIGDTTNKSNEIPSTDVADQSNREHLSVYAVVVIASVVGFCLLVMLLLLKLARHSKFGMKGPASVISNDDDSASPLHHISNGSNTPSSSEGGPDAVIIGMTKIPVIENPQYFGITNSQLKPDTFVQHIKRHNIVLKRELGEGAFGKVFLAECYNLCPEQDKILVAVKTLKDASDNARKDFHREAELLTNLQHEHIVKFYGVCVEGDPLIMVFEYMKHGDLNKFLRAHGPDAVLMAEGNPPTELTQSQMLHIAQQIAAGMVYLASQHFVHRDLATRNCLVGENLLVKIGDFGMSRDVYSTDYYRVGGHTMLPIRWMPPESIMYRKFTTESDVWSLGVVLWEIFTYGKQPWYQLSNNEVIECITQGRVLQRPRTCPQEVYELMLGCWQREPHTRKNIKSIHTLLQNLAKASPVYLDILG
T2 sequence (P15209 32-821 Y433F): as the sequence (P15209 32-821) above, with Y402F counted along it

N[C@@]1(c2ccccc2Cl)CCC[C@@H](O)C1=O [R,R-HNK, 2R,6R-hydroxynorketamine]
object location memory (mice [1]): improved object location memory
increase in surface GluR1 in neurons from TRKB.Y433F mutant mice [2]: prevented
affinity to NMDA receptors (NMDA receptors): low affinity
displacement of biotinylated FLX from TRKB (TRKB [3]): readily displaced
pKi (TRKB [3]; read-out: Ki for displacement of biotinylated FLX from TRKB): 5.65
cell surface localization of GluR1 subunits of AMPA receptors [4]: increased cell surface localization of GluR1 subunits
pKd (TRKB [5]): 5.74
affinity to TRKB.Y433F compared with wild-type TRKB (TRKB.Y433F): much lower than to the wild-type TRKB
TRKB interaction with PLC-γ1 (TRKB:PLC-γ1 interaction): increased TRKB interaction with PLC-γ1
effect on shift in ocular dominance (mice [6]; TRKB.Y433F mice): lost
shift in ocular dominance after 7-day monocular deprivation (mice [6]; adult mice, 10 mg/kg i.p. every second day for 8 days): significant shift in OD
effect on shift in ocular dominance (mice [6]; wild-type mice co-treated with pravastatin): lost

Source: paper PMC7938888, “Antidepressant drugs act by directly binding to TRKB neurotrophin receptors” (Cell, 2021)
